The target in one data set is T1, AR (Rattus norvegicus, UniProt P15207).
T1 sequence (P15207 1-902): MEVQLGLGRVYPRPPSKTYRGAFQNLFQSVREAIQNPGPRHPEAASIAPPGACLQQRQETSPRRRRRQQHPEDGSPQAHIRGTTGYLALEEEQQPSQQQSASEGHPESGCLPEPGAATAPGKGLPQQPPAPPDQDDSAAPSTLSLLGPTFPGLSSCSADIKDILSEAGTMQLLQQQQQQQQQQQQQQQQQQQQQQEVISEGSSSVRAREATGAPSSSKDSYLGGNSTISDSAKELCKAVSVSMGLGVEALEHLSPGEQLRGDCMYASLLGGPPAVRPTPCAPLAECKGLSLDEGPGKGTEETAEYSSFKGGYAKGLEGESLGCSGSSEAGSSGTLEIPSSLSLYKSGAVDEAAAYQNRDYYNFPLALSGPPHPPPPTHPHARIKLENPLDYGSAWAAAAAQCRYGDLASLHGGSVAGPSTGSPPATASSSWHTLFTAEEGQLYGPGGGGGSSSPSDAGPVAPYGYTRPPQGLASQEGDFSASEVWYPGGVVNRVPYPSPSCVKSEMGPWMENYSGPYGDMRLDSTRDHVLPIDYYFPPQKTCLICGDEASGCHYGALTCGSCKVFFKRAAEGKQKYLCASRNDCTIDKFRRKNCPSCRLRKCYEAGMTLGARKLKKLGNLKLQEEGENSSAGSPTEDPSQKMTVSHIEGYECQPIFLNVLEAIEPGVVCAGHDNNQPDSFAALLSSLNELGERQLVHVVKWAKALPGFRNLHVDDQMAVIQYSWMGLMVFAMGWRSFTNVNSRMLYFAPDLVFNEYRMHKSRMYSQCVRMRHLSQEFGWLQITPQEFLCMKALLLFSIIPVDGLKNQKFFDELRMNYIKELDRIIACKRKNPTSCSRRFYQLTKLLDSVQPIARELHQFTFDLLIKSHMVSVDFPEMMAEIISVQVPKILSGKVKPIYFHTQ
Put plainly: AR agonism and antagonism in immature male rats, 3-day assay, relative organ weights. The method, then: The title compound of Example 3, abbreviated here as compound A, was further studied in in vivo experiment. The agonism and antagonism of the compound with subcutaneous dosing was tested in immature male Spraque Dawley rat 3-day assay by analyzing the relative weights of ventral prostate, seminal vesicle, and levator ani-muscle. Testosterone propionate was used as a reference compound.
Testosterone propionate (abbreviated here TP) and compound A were first dissolved into DMSO and then into the vehicle sesame oil. Sprague-Dawley untreated male rats (18-19 days old) weighing about 50 g were used in the experiment. Rats were weighed and randomly distributed into five groups, with 5 animals per group (Table 1). Compound A (doses 2 and 20 mg/kg) and testosterone propionate (dose 5 mg/kg) were given subcutaneously (s.c.) into the neck/back of the animals at a constant volume of 100 microl dosing solution/animal/day. The animals were dosed once daily for three days, and clinical signs were recorded during dosing. At the end of the study, animals were weighed and anaesthetised by CO2 asphyxiation. Ventral prostate, seminal vesicles, and levator ani-muscle were dissected out, chilled, and weighed. For statistical analysis, the weights of all organs were normalized to body weights, and analyzed for statistical significant difference by single-factor ANOVA.
In the Figure, “a” means agonism, p<0.01 compared to vehicle group, “b” means antagonism, p<0.05 compared to testosterone group, bars represent mean±SEM.

Another data set deals with T2, androgen receptor (AR) (Rattus norvegicus, UniProt P15207).
T2 construct: Ventral prostates were obtained form rats castrated 24 h prior to sacrifice; from tissue; host or cells: rat ventral prostate cytosol (castrated rats, charcoal-treated)
T2 sequence (P15207 1-902): T1 sequence (P15207 1-902)
The data set is described as follows: AR binding assay, competition with [3H]-mibolerone binding in rat ventral prostate cytosol. As to conditions: 1 nM [3H]-mibolerone, overnight at 0° C. The method, then:
Ventral prostates were obtained form rats castrated 24 h prior to sacrifice. Fresh prostate was minced and washed with Buffer A (Schilling and Liao, Prostate, 5:581-588, 1984). The minces were then homogenized in 3× volume of Buffer A containing protease inhibitors (Complete, Mini, EDTA-free Roche). The homogenate was centrifuged at 30000 g for 30 min. The resultant supernatants were treated with 1×volume of dextran-coated charcoal solution (12.5 g activated charcoal, 12.5 g dextran per liter of buffer A) to remove endogenous steroids. The samples were incubated for 5 min and centrifuged at 16000 g for 10 min. Aliquots of the charcoal-treated cytosol were taken for androgen receptor assays. All procedures were carried out at 0-4° C.
Cytosol androgen receptor concentration was determined as described (Isomaa et al., Endocrinology, 111: 833-843, 1982) with minor modifications. Cytosol preparations were prepared as described above, and bound and free steroids were separated by treatment with an equal volume of dextran-charcoal suspension for 5 min at 4° C. followed by centrifugation at 16000 g for 10 min. Bound radioactivity was determined by counting supernatant fractions in 1 ml of OptiPhase HiSafe3 or OptiPhase Supermix (PerkinElmer).
Cytosol preparations were labelled with 1 nM [^3H]-mibolerone overnight at 0° C. (total). To determine AR binding activity of the compounds of the present invention (test compounds), the ability of test compounds to compete with [^3H]7α,17α-dimethyl-17β-hydroxy-4-estren-3-one ([^3H]-mibolerone) binding was studied. 1 nM [^3H]-mibolerone and test compounds in two concentrations (0.2 and 2 uM) were incubated overnight at 0° C. To determine non-specific binding, parallel incubations were carried out using 1 nM concentration [^3H]-mibolerone with 500-fold molar excess of unlabelled testosterone. Two to four replicates were used for each sample. After incubation, bound and free steroids were separated as described above and bound radioactivity was determined. The ability of the test compounds to bind AR is reported as reduction in bound radioactivity obtained with 1 nM [^3H]-mibolerone. The results (% inhibition) were calculated as: % inhibition=100−(100×(averagetest compound/averagetotal)).

[1] abbreviates: 20 mg/kg s.c. once daily for three days, immature male rat.
Setting [2] is: 5 mg/kg s.c. once daily for three days, immature male rat.

The text below walks through data of patent US7390923B2, “Propionamide derivatives useful as androgen receptor modulators” (Orion Corporation, priority 2003, dated 2008).

Molecules are shown by their SMILES.

`CC(=O)Nc1ccc(OC[C@](C)(O)C(=O)Nc2ccc([N+](=O)[O-])c(C)c2)cc1` [Example 3, (2S)-3-(4-Acetylaminophenoxy)-2-hydroxy-2-methyl-N-(3-methyl-4-nitrophenyl)propionamide]: at AR (setting [1]), the “relative weight of levator ani-muscle” value is reported as “clearly increased” and the “relative weight of the prostate” value is “only minimally”. Also, the “antagonistic activity in seminal vesicle” value at AR (TP 5 mg/kg + compound A 20 mg/kg s.c., p<0.05 compared to testosterone group) is given as “significant antagonistic activity”. The “androgenic and anabolic activity” value at AR (s.c. 2 and 20 mg/kg, immature male rat, FIG. 1) is “shows androgenic and anabolic activity”. The “effect on the body weights” value at AR (s.c. once daily for three days, immature male rat, data not shown) was “Neither testosterone propionate nor compound A had any effect”. The “tissue selectivity compared with testosterone propionate” value on AR (s.c., immature male rat) is “showed tissue selectivity”. Also, the inhibition (usually the change of the read-out against control, counted positive when it falls) at 0.2 µM at androgen receptor (AR) (test compound 0.2 μM) stood at 103%. Further, the inhibition at 2 µM at androgen receptor (AR) (test compound 2.0 μM) came out at 115%.

Consider `Cc1cc(NC(=O)C(C)(O)CNc2ccc(F)cc2)ccc1[N+](=O)[O-]` (centres unmarked) [Example 52, 3-(4-Fluorophenylamino)-2-hydroxy-2-methyl-N-(3-methyl-4-nitrophenyl)propionamide], for which the inhibition at 0.2 µM at androgen receptor (AR) (test compound 0.2 μM) stood at 90%. Further, on androgen receptor (AR) (test compound 2.0 μM), the inhibition at 2 µM was 115%.

As for `Cc1cc(NC(=O)C(C)(O)CNc2ccc(C#N)cc2)ccc1[N+](=O)[O-]` (centres unmarked) [Example 55, 3-(4-Cyanophenylamino)-2-hydroxy-2-methyl-N-(3-methyl-4-nitrophenyl)propionamide], the inhibition at 0.2 µM at androgen receptor (AR) (test compound 0.2 μM) was found to be 87%. Further, the inhibition at 2 µM at androgen receptor (AR) (test compound 2.0 μM) is 99%.

As for `Cc1cc(NC(=O)C(C)(O)CNc2ccc(C#N)c(Cl)c2)ccc1[N+](=O)[O-]` (centres unmarked) [Example 56, 3-(3-Chloro-4-cyanophenylamino)-2-hydroxy-2-methyl-N-(3-methyl-4-nitrophenyl)propionamide], at androgen receptor (AR) (test compound 0.2 μM), the inhibition at 0.2 µM is 90%. The inhibition at 2 µM on androgen receptor (AR) (test compound 2.0 μM) worked out at 95%.

Consider `Cc1cc(NC(=O)C(C)(O)COc2ccncc2)ccc1[N+](=O)[O-]` (centres unmarked) [Example 58, 2-Hydroxy-2-methyl-N-(3-methyl-4-nitrophenyl)-3-(pyridin-4-yloxo)propionamide], for which the “Inhibition (%) of [3H]-mibolerone binding at 0.2 μM” value at androgen receptor (AR) (test compound 0.2 μM) is 84%. For the same compound, on androgen receptor (AR) (test compound 2.0 μM), the “Inhibition (%) of [3H]-mibolerone binding at 2.0 μM” value came out at 93%.

For the compound `Cc1cc(NC(=O)C(C)(O)COc2ccc(C#N)c(Cl)c2)ccc1[N+](=O)[O-]` (centres unmarked) [Example 63, 3-(3-Chloro-4-cyanophenoxy)-2-hydroxy-2-methyl-N-(3-methyl-4-nitrophenyl)propionamide], the inhibition at 0.2 µM on androgen receptor (AR) (test compound 0.2 μM) stood at 92%. The inhibition at 2 µM at androgen receptor (AR) (test compound 2.0 μM) is 98%.

On to `Cc1cc([N+](=O)[O-])ccc1NC(=O)C(C)(O)COc1ccc(C#N)c(F)c1` (centres unmarked) [Example 64, 3-(4-Cyano-3-fluorophenoxy)-2-hydroxy-2-methyl-N-(2-methyl-4-nitrophenyl)propionamide], for which the inhibition at 0.2 µM on androgen receptor (AR) (test compound 0.2 μM) was found to be 79%. In addition, the inhibition at 2 µM at androgen receptor (AR) (test compound 2.0 μM) stood at 89%.

`CC(O)(COc1ccc(C#N)c(F)c1)C(=O)Nc1ccc([N+](=O)[O-])c(C=O)c1` (centres unmarked) [Example 66, 3-(4-Cyano-3-fluorophenoxy)-N-(3-formyl-4-nitrophenyl)-2-hydroxy-2-methylpropionamide]: the inhibition at 0.2 µM at androgen receptor (AR) (test compound 0.2 μM) turned out to be 69%. For the same compound, on androgen receptor (AR) (test compound 2.0 μM), the inhibition at 2 µM was determined as 93%.

Take `Cc1cc(NC(=O)C(C)(O)COc2ccc(CCCCl)cc2)ccc1[N+](=O)[O-]` (centres unmarked) [Example 79, 3-[4-(3-Chloropropyl)phenoxy]-2-hydroxy-2-methyl-N-(3-methyl-4-nitrophenyl)propionamide]: the inhibition at 0.2 µM on androgen receptor (AR) (test compound 0.2 μM) worked out at 89%. Also, on androgen receptor (AR) (test compound 2.0 μM), the inhibition at 2 µM was 98%.

For the compound `Cc1cc(NC(=O)C(C)(O)COc2ccc(OCCCl)cc2)ccc1[N+](=O)[O-]` (centres unmarked) [Example 80, 3-[4-(2-Chloroethoxy)phenoxy]-2-hydroxy-2-methyl-N-(3-methyl-4-nitrophenyl)propionamide], the inhibition at 0.2 µM at androgen receptor (AR) (test compound 0.2 μM) amounted to 87%. At androgen receptor (AR) (test compound 2.0 μM), the inhibition at 2 µM was found to be 99%.

Consider `COCc1ccc(OCC(C)(O)C(=O)Nc2ccc([N+](=O)[O-])c(C)c2)cc1` (centres unmarked) [Example 81, 2-Hydroxy-3-(4-methoxymethylphenoxy)-2-methyl-N-(3-methyl-4-nitrophenyl)propionamide], for which, at androgen receptor (AR) (test compound 0.2 μM), the inhibition at 0.2 µM turned out to be 85%. Moreover, at androgen receptor (AR) (test compound 2.0 μM), the inhibition at 2 µM was determined as 98%.

For `CCC(=O)O[C@H]1CC[C@H]2[C@@H]3CCC4=CC(=O)CC[C@]4(C)[C@H]3CC[C@]12C` [testosterone propionate, Testosterone propionate, reference compound], at AR (setting [2]), the “relative weight of levator ani-muscle” value was “increased significantly”, the “relative weight of seminal vesicle” value is “increased significantly” and the “relative weight of ventral prostate” value is “increased significantly”. For the same compound, the “effect on the body weights” value on AR (rat, in vivo, sc) is “Neither testosterone propionate nor compound A had any effect”.
